According to patent publication US9566312B2, “Cyclic peptides and use as medicines” (priority 2012, dated 2017):
Starred links: 1 amine or outer side, 2 acyl side, 3 side chain; linkers in the order of their positions; H or OH if unused. Non-standard residues stand in square brackets, D forms with d. Residues, ends and D or L forms follow the SMILES beside them. X61 = C[C@@H]1CN(CCOC[C@@H](C)[C@@H](C(=O)[*:2])N(C)[*:1])[C@H](C)CO1; X26 = C[C@H](CN1CCn2c(nnc2C(F)(F)F)C1)[C@@H](C(=O)[*:2])N(C)[*:1]; X48 = C[C@@H](CN1CCN(S(C)(=O)=O)CC1)[C@@H](C(=O)[*:2])N(C)[*:1]; X37 = C[C@H](CN1CCC(S(C)(=O)=O)CC1)[C@@H](C(=O)[*:2])N(C)[*:1]; X45 = C[C@H](CCC(=O)N1CC2CCC(C1)O2)[C@@H](C(=O)[*:2])N(C)[*:1]; X54 = CCOC(=O)N1CCN(C[C@@H](C)[C@@H](C(=O)[*:2])N(C)[*:1])CC1; X73 = CO[C@H]1CCN(CCOC[C@@H](C)[C@@H](C(=O)[*:2])N(C)[*:1])C1; X38 = C[C@@H](CN1CCN2C(=O)OCC2C1)[C@@H](C(=O)[*:2])N(C)[*:1]; X68 = C[C@H](CCN1CCC(C#N)CC1)[C@@H](C(=O)[*:2])N(C)[*:1]; X30 = C[C@H](CN1CCCOCC1)[C@@H](C(=O)[*:2])N(C)[*:1]; MeBmt = C/C=C/C[C@@H](C)[C@@H](O)[C@H](NC)C(=O)O; NMeL = CN[C@@H](CC(C)C)C(=O)O; NMeV = CN[C@H](C(=O)O)C(C)C; dNMeA = CN[C@H](C)C(=O)O; Abu = CC[C@H](N)C(=O)O

Legend:
[1] = target: cyclophilin A (CypA) (Homo sapiens (Human), UniProt P62937); assay: Inhibitor binding to cyclophilin proteins by SPR, CypA; design: unit not given here; conditions: 1:1 binding model;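 also: Single-cycle kinetics on a Biacore T200, compound injected at several concentrations for 1 min each at 50 µL/min, then 10 min dissociation, in HEPES pH 7.4 buffer with 3% DMSO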
Sequence of cyclophilin A (CypA) (P62937 whole entry): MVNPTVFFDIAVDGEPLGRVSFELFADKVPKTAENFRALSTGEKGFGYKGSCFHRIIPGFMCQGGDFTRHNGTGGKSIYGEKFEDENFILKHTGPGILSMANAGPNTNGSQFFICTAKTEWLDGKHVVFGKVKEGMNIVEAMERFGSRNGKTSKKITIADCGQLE

[2] = target: cyclophilin B (CypB) (Homo sapiens (Human), UniProt P23284); assay: Inhibitor binding to cyclophilin proteins by SPR, CypB; design: unit not given here; conditions: 1:1 binding model
Sequence of cyclophilin B (CypB) (P23284 34-216): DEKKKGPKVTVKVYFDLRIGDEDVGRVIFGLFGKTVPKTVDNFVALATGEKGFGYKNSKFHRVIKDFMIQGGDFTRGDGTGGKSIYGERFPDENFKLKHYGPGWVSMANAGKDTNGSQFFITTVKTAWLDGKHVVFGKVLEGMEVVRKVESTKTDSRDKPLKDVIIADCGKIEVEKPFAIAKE
In short: (§1)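 Mono-biotinylated avi-tagged cyclophilins were captured on a Biotin CAPture chip and compound injected by single-cycle kinetics in 10 mM HEPES pH 7.4, 150 mM NaCl, 0.05% P20, 3% DMSO. Contact 1 min per concentration at 50 μL/min, 10 min final dissociation; 1:1 model fit gave kon, koff, KD.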

[3] = target: CypF (Homo sapiens (Human), UniProt P30405); assay: Inhibitor binding to cyclophilin proteins by SPR, CypF; conditions: 1:1 binding model
Sequence of CypF (P30405 30-207): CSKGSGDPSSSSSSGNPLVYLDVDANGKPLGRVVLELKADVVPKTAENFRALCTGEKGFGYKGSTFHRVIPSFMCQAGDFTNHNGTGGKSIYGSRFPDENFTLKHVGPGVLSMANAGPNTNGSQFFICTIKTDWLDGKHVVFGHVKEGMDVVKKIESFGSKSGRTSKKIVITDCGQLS
In short: as §1

[4] = tested on: genotype 1b subgenomic HCV replicon in Huh7.5 cells; format: cell-based, hepatitis C virus; conditions: genotype 1b replicon, 72 h incubation; read-out: RPLN-1b IC50
In short: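 Huh7.5 cells carrying genotype 1b subgenomic HCV replicon with renilla luciferase-neomycin reporter, in phenol red-free DMEM without G418. Luciferase measured after 72 h compound exposure relative to DMSO-treated cells; cytotoxicity (CC50) by Cell Titer-Glo.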

[5] = tested on: peripheral blood mononuclear cells (PBMC); assay: Anti-proliferative or immunosuppressive activity, BrdU incorporation in PHA-stimulated PBMC; format: cell-based; conditions: PHA 3 μg/ml, 60 hour compound treatment; read-out: EMV PBMC IC50
In short: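 Fresh PBMCs from two donors, 30,000 per well in X-VIVO 15 medium, stimulated with 3 μg/ml PHA to drive T-cell proliferation. Proliferation measured as BrdU incorporation into DNA by BrdU ELISA.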

[6] = target: organic anion transporting polypeptide 1B1 (OATP1B1) (Homo sapiens (Human), UniProt Q9Y6L6); assay: OATP assay in CHO-OATP1B1 cells;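 also: inhibition of probe substrate uptake into the cells, ten minutes exposure, accumulated substrate read by fluorescence once cells were lysed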
Sequence of organic anion transporting polypeptide 1B1 (OATP1B1) (Q9Y6L6 whole entry): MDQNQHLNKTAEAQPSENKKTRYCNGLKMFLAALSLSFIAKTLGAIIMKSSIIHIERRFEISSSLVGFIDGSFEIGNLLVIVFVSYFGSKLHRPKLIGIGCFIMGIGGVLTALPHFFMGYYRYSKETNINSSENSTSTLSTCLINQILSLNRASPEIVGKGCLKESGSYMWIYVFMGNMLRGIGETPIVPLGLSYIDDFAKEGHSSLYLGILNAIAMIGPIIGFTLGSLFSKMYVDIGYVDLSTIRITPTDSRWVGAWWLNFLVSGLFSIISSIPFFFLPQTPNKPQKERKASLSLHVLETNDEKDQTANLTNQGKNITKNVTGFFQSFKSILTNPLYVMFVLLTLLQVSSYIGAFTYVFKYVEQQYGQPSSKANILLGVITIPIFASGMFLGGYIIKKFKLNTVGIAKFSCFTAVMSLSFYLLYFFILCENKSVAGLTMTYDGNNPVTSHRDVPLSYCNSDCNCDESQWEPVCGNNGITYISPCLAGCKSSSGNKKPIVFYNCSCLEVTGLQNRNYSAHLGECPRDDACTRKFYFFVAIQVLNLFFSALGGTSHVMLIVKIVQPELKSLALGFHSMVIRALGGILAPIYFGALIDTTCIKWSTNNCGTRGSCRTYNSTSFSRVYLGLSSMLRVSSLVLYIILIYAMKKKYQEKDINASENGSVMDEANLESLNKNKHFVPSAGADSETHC

| SMILES | CypA Kd [1] | CypB Kd [2] | CypF Kd [3] | IC50 [4] | IC50 [5] | IC50 [6] |
| --- | --- | --- | --- | --- | --- | --- |
| C/C=C/C[C@@H](C)[C@@H](O)[C@H]1C(=O)N[C@@H](CC)C(=O)N(C)[C@H](C)C(=O)N(C)[C@@H]([C@H](C)COCCN2C[C@@H](C)OC[C@H]2C)C(=O)N[C@@H](C(C)C)C(=O)N(C)[C@@H](CC(C)C)C(=O)N[C@@H](C)C(=O)N[C@H](C)C(=O)N(C)[C@@H](CC(C)C)C(=O)N(C)[C@@H](CC(C)C)C(=O)N(C)[C@@H](C(C)C)C(=O)N1C [Compound 2.8.4, 3-[D-Ala]-4-[(2S,3S)-4-(2-((2R,5R)-2,5-dimethylmorpholino)ethoxy)-3-methyl-2-(methylamino)butanoyl]-cyclosporin] (cyclo(A[dA][NMeL][NMeL][NMeV][MeBmt][Abu][dNMeA][X61]V[NMeL])) | 0.9 | 0.7 | 0.7 nM | 45 nM | 10700 nM | 3600 nM |
| C/C=C/C[C@@H](C)[C@@H](O)[C@H]1C(=O)N[C@@H](CC)C(=O)N(C)[C@H](C)C(=O)N(C)[C@@H]([C@H](C)CN2CCn3c(nnc3C(F)(F)F)C2)C(=O)N[C@@H](C(C)C)C(=O)N(C)[C@@H](CC(C)C)C(=O)N[C@@H](C)C(=O)N[C@H](C)C(=O)N(C)[C@@H](CC(C)C)C(=O)N(C)[C@@H](CC(C)C)C(=O)N(C)[C@@H](C(C)C)C(=O)N1C [Compound 2.5.19, 3-[D-Ala]-4-[(2S,3R)-3-methyl-2-(methylamino)-4-(3-(trifluoromethyl)-5,6-dihydro-[1,2,4]triazolo[4,3-a]pyrazin-7(8H)-yl)butanoyl]-cyclosporin] (cyclo(A[dA][NMeL][NMeL][NMeV][MeBmt][Abu][dNMeA][X26]V[NMeL])) | 2.8 | 1.2 | 1.6 nM | 75 nM | 12600 nM | 1000 nM |
| C/C=C/C[C@@H](C)[C@@H](O)[C@H]1C(=O)N[C@@H](CC)C(=O)N(C)[C@H](C)C(=O)N(C)[C@@H]([C@H](C)CCC(=O)N2CC3CCC(C2)O3)C(=O)N[C@@H](C(C)C)C(=O)N(C)[C@@H](CC(C)C)C(=O)N[C@@H](C)C(=O)N[C@H](C)C(=O)N(C)[C@@H](CC(C)C)C(=O)N(C)[C@@H](CC(C)C)C(=O)N(C)[C@@H](C(C)C)C(=O)N1C [Compound 2.14.2, 3-[D-Ala]-4-[(2S,3R)-6-(8-oxa-3-azabicyclo[3.2.1]octan-3-yl)-3-methyl-2-(methylamino)-6-oxohexanoyl]-cyclosporin] (cyclo(A[dA][NMeL][NMeL][NMeV][MeBmt][Abu][dNMeA][X45]V[NMeL])) | 2.4 | 0.9 | 1 nM | 75 nM | 6700 nM | 1900 nM |
| C/C=C/C[C@@H](C)[C@@H](O)[C@H]1C(=O)N[C@@H](CC)C(=O)N(C)[C@H](C)C(=O)N(C)[C@@H]([C@@H](C)CN2CCN3C(=O)OCC3C2)C(=O)N[C@@H](C(C)C)C(=O)N(C)[C@@H](CC(C)C)C(=O)N[C@@H](C)C(=O)N[C@H](C)C(=O)N(C)[C@@H](CC(C)C)C(=O)N(C)[C@@H](CC(C)C)C(=O)N(C)[C@@H](C(C)C)C(=O)N1C (stereo partly drawn) [Compound 2.17.10, 3-[D-Ala]-4-[(2S,3S)-3-methyl-2-(methylamino)-4-((S)-3-oxotetrahydro-1H-oxazolo[3,4-a]pyrazin-7(3H)-yl)butanoyl]-cyclosporin] (cyclo(A[dA][NMeL][NMeL][NMeV][MeBmt][Abu][dNMeA][X38]V[NMeL])) | 0.6 | 0.5 | 0.4 nM | 31 nM | 15000 nM | 1400 nM |
| C/C=C/C[C@@H](C)[C@@H](O)[C@H]1C(=O)N[C@@H](CC)C(=O)N(C)[C@H](C)C(=O)N(C)[C@@H]([C@H](C)CN2CCCOCC2)C(=O)N[C@@H](C(C)C)C(=O)N(C)[C@@H](CC(C)C)C(=O)N[C@@H](C)C(=O)N[C@H](C)C(=O)N(C)[C@@H](CC(C)C)C(=O)N(C)[C@@H](CC(C)C)C(=O)N(C)[C@@H](C(C)C)C(=O)N1C [Compound 2.5.21, 3-[D-Ala]-4-[(2S,3R)-3-methyl-2-(methylamino)-4-(1,4-oxazepan-4-yl)butanoyl]-cyclosporin] (cyclo(A[dA][NMeL][NMeL][NMeV][MeBmt][Abu][dNMeA][X30]V[NMeL])) | 1.9 | 0.9 | 0.8 nM | 37 nM | 4500 nM | 1700 nM |
| C/C=C/C[C@@H](C)[C@@H](O)[C@H]1C(=O)N[C@@H](CC)C(=O)N(C)[C@H](C)C(=O)N(C)[C@@H]([C@@H](C)CN2CCN(S(C)(=O)=O)CC2)C(=O)N[C@@H](C(C)C)C(=O)N(C)[C@@H](CC(C)C)C(=O)N[C@@H](C)C(=O)N[C@H](C)C(=O)N(C)[C@@H](CC(C)C)C(=O)N(C)[C@@H](CC(C)C)C(=O)N(C)[C@@H](C(C)C)C(=O)N1C [Compound 2.17.9, 3-[D-Ala]-4-[(2S,3S)-3-methyl-2-(methylamino)-4-(4-(methylsulfonyl)piperazin-1-yl)butanoyl]-cyclosporin] (cyclo(A[dA][NMeL][NMeL][NMeV][MeBmt][Abu][dNMeA][X48]V[NMeL])) | 0.9 | 0.6 | 0.5 nM | 23 nM | 31900 nM | 400 nM |
| C/C=C/C[C@@H](C)[C@@H](O)[C@H]1C(=O)N[C@@H](CC)C(=O)N(C)[C@H](C)C(=O)N(C)[C@@H]([C@H](C)CN2CCN(C(=O)OCC)CC2)C(=O)N[C@@H](C(C)C)C(=O)N(C)[C@@H](CC(C)C)C(=O)N[C@@H](C)C(=O)N[C@H](C)C(=O)N(C)[C@@H](CC(C)C)C(=O)N(C)[C@@H](CC(C)C)C(=O)N(C)[C@@H](C(C)C)C(=O)N1C [Compound 2.5.31, 3-[D-Ala]-4-[(2S,3R)-4-(4-(ethoxycarbonyl)piperazin-1-yl)-3-methyl-2-(methylamino)butanoyl]-cyclosporin] (cyclo(A[dA][NMeL][NMeL][NMeV][MeBmt][Abu][dNMeA][X54]V[NMeL])) | 2.5 | 1.1 | 1.3 nM | 55 nM | 18900 nM | 2100 nM |
| C/C=C/C[C@@H](C)[C@@H](O)[C@H]1C(=O)N[C@@H](CC)C(=O)N(C)[C@H](C)C(=O)N(C)[C@@H]([C@H](C)CN2CCC(S(C)(=O)=O)CC2)C(=O)N[C@@H](C(C)C)C(=O)N(C)[C@@H](CC(C)C)C(=O)N[C@@H](C)C(=O)N[C@H](C)C(=O)N(C)[C@@H](CC(C)C)C(=O)N(C)[C@@H](CC(C)C)C(=O)N(C)[C@@H](C(C)C)C(=O)N1C [Compound 2.5.20, 3-[D-Ala]-4-[(2S,3R)-3-methyl-2-(methylamino)-4-(4-(methylsulfonyl)piperidin-1-yl)butanoyl]-cyclosporin] (cyclo(A[dA][NMeL][NMeL][NMeV][MeBmt][Abu][dNMeA][X37]V[NMeL])) | 3.7 | 1.2 | 1.6 nM | 109 nM | 29200 nM | 1800 nM |
| C/C=C/C[C@@H](C)[C@@H](O)[C@H]1C(=O)N[C@@H](CC)C(=O)N(C)[C@H](C)C(=O)N(C)[C@@H]([C@H](C)CCN2CCC(C#N)CC2)C(=O)N[C@@H](C(C)C)C(=O)N(C)[C@@H](CC(C)C)C(=O)N[C@@H](C)C(=O)N[C@H](C)C(=O)N(C)[C@@H](CC(C)C)C(=O)N(C)[C@@H](CC(C)C)C(=O)N(C)[C@@H](C(C)C)C(=O)N1C [Compound 2.18.2, 3-[D-Ala]-4-[(2S,3R)-5-(4-cyanopiperidin-1-yl)-3-methyl-2-(methylamino)pentanoyl]-cyclosporin] (cyclo(A[dA][NMeL][NMeL][NMeV][MeBmt][Abu][dNMeA][X68]V[NMeL])) | 1.1 | 0.7 | 0.6 nM | 58 nM | 7300 nM | 2400 nM |
| C/C=C/C[C@@H](C)[C@@H](O)[C@H]1C(=O)N[C@@H](CC)C(=O)N(C)[C@H](C)C(=O)N(C)[C@@H]([C@H](C)COCCN2CC[C@H](OC)C2)C(=O)N[C@@H](C(C)C)C(=O)N(C)[C@@H](CC(C)C)C(=O)N[C@@H](C)C(=O)N[C@H](C)C(=O)N(C)[C@@H](CC(C)C)C(=O)N(C)[C@@H](CC(C)C)C(=O)N(C)[C@@H](C(C)C)C(=O)N1C [Compound 2.8.7, 3-[D-Ala]-4-[(2S,3S)-4-(2-((S)-3-methoxypyrrolidin-1-yl)ethoxy)-3-methyl-2-(methylamino)butanoyl]-cyclosporin] (cyclo(A[dA][NMeL][NMeL][NMeV][MeBmt][Abu][dNMeA][X73]V[NMeL])) | 0.6 | 0.4 | 0.3 nM | 45 nM | 6800 nM | 5000 nM |
